According to patent publication US8623832B2, “Peptide compositions that bind TLR-4” (The Board of Regents of the University of Oklahoma, priority 2011, dated 2014):
Where no end group is shown, it is not given here.

Key:
NF-κB [1] = assay: NF-κB luciferase reporter activity in LPS-challenged SW480 cells; format: cell-based, human; conditions: LPS 1.0 μg/ml
Method: NF-κB activity: Since binding of LPS to TLR4 activates NF-κB through MYD88-dependent and independent pathways, the effects of SPA4 peptide on basal and LPS-induced NF-κB activity were investigated in SW480 cells transfected with a dominant negative construct of MYD88 (MYD88DN) and NF-κB firefly-luciferase reporter plasmid DNA. Both the short-(1 hour) and long-term (5 hours) effects of the SPA4 peptide on NF-κB activity were studied.
The SW480 cells were transiently-transfected with NF-κB firefly-luciferase reporter plasmid pGL4.32 (luc2P/NF-κB-RE/Hygro, Promega, WI; provided by Dr. Kelly Standifer, Department of Pharmaceutical Sciences, University of Oklahoma Health Sciences Center, Oklahoma City, Okla.) and MYD88-dominant negative plasmid construct (MYD88DN, provided by Dr. Ruslan Medzhitov, Yale University, CT). MYD88 dominant negative plasmid DNA construct lacked the death domain and intermediate domain (Medzhitov et al., 1998). Briefly, NF-κB-Luciferase reporter and MYD88-dominant negative plasmids (1.0 μg each) were mixed with 6 μl of Fugene HD reagent (Roche, Ind.) in 92 μl of serum-free low-glucose DMEM medium (Invitrogen, CA), and incubated for 20 minutes at room temperature. The transfection-mix was then added to the SW480 cells. The SW480 cells transfected with a plasmid DNA construct expressing enhanced green fluorescent protein (pHYG-EGFP; Clontech, CA) were observed under Leica DM4000B fluorescent microscope. The transfection efficiency was calculated as percent of cells expressing EGFP over total number of cells in the brightfield channel. […]
After completion of the incubation period, the medium supernatants were removed and cells were washed with room-temperature DPBS. […] The firefly-luciferase activity (measurement of NF-κB activity) was measured using the luciferase reporter assay system (Promega, Fitchburg, Wis.). Briefly, 50 μl of luciferase assay reagent was added to the 20 μl cell lysate by automated dispenser of Synergy HT multi-mode microplate reader (Biotek, Winooski, Vt.), and luminescence was read within 10 seconds. […]

NF-κB [2] = assay: NF-κB luciferase reporter activity in LPS-challenged JAWS II dendritic cells; format: cell-based, mouse
Method: At the molecular level, the effects of SPA4 peptide on LPS-induced NF-κB activity were studied in dendritic cells (JAWS II cells) co-transfected with NFκB luciferase reporter plasmid construct and dominant negative construct of MYD88 (an adaptor protein downstream of TLR4; MYD88DN). Briefly, JAWS II dendritic cells (0.5×10^6) were transfected with NF-κB luciferase reporter and/or MYD88DN using TransIT-TKO transfection reagent as described earlier (Awasthi S et al., 2003). After 20-24 hours of incubation, the transfected cells were challenged with LPS (100 ng/ml) for 4 hours and treated with SPA4 peptide (10 μM) for 1 hour. After the completion of 5 hours incubation, the cell lysates were prepared in cell lysis buffer and NF-κB-luciferase reporter activity was measured as per the manufacturer's instructions (Promega, WI).

SW480 cells = assay: Cell cycle analysis of SW480 cells by flow cytometry; format: cell-based, human; conditions: SPA4 10, 50 and 100 μM; over 40 h
Method: Cell cycle analysis: The effect of SPA4 peptide on cell cycle progression was studied by flow-cytometry. About 500,000 cells were seeded per well into 6 well plate. The cells were challenged with LPS (100 ng/ml) for 4 hours. After the completion of 4 hours LPS-challenge period, SPA4 peptide (10, 50 and 100 μM) was added to the cells. Cells were further incubated for 20 and 40 hours. Vehicle-treated cells were also included. After 20 and 40 hours of total incubation period, both adherent and non-adherent cells were collected and centrifuged at 260×g for 5 minutes. The supernatant was discarded and cell pellet was washed with DPBS (Invitrogen-Gibco, NY). The cells were fixed in 70% ice-cold ethanol on ice for 1 hour and stained with a buffer containing 200 μg/ml DNase-free RNase A (Sigma, St Louis, Mo.), 0.1% v/v Triton-X 100 and 20 μg/ml propidium iodide (Molecular Probes, Carlsbad, Calif.). The cells were incubated at 4° C. for 30 minutes in the dark, before measuring cell fluorescence using Becton Dickson FACS Calibur flow cytometer. The single cells were selected by gating out the aggregates and the percent number of cell populations in different cell cycle phases were calculated by de-convoluting the results ModFIT software (Verity software house, Topsham, Me.).

GDFRYSDGTPVNYTNWYRGE [SPA4, GDFRYSDGT PVNYTNWYRGE]
LPS induced NF-κB activity at 9 hours (NF-κB [1]; SPA4 1, 10 or 50 μM, long-term): not significantly inhibited | LPS induced-NF-κB activity after 5 hours (NF-κB [1]; SPA4 10 and 50 μM, short-term): reduces | NF-κB activity in cells transfected with dominant negative construct of MYD88 (NF-κB [1]; MYD88DN): did not further reduce | MYD88-independent NF-κB activity (NF-κB [2]; JAWS II co-transfected with MYD88 dominant negative): does not affect | LPS-induced NF-κB activity in dendritic cells (NF-κB [2]; JAWS II, LPS 100 ng/ml 4 hours, SPA4 10 μM 1 hour): inhibits | cell cycle progression of SW480 cells (SW480 cells): did not affect
